From patent publication US8557800B2, “Sphingosine kinase inhibitors” (Apogee Biotechnology Corporation, priority 2005, dated 2013)
Where two headings read alike, the source gives them in different places.

Assays:
recombinant human SK = experiment: Inhibition of recombinant human SK, LC/MS/MS assay; type: biochemical; conditions: 6 μg/ml compound
Protocol: SK activity is measured by incubation of the recombinant SK with [^3H]sphingosine and 1 mM ATP under defined conditions, followed by extraction of the assay mixture with chloroform:methanol under basic conditions. […] Radioactivity in aliquots of the aqueous phase is then quantified as a measure of [^3H]S1P formation.
In an alternate assay procedure, the recombinant human SK was incubated with unlabeled sphingosine and ATP as described above. After 30 minutes, the reactions were terminated by the addition of acetonitrile to directly extract the newly synthesized S1P. The amount of S1P in the samples is then quantified as follows. C17 base D-erythro-sphingosine and C17 SIP are used as internal standards for sphingosine and S1P, respectively. […] The lipids are then fractionation by High-Performance Liquid Chromatography using a C8-reverse phase column eluted with 1 mM methanolic ammonium formate/2 mM aqueous ammonium formate. […] Calibration curves are generated by plotting the peak area ratios of the synthetic standards for each sphingolipid, and used to determine the normalized amounts of sphingosine and S1P in the samples.
Each Compound of this invention was tested for its ability to inhibit recombinant SK using the LC/MS/MS assay described above.

[1] = tested on: MCF-10A non-transformed human breast epithelial cells; experiment: Cytotoxicity, SRB binding assay; type: cell-based; conditions: 48 h
Protocol: (§1) To further assess the biological efficacies of the Compounds in intact cells, each Compound was evaluated for cytotoxicity using human cancer cell lines. These experiments followed methods that have been extensively used. Cell lines tested included MCF-7 human breast adenocarcinoma cells and MCF-10A non-transformed human breast epithelial cells. The indicated cell lines were treated with varying doses of the test Compound for 48 h. Cell survival was then determined using the SRB binding assay (Skehan et al., 1990, J Natl Cancer Inst 82: 1107), and the concentration of compound that inhibited proliferation by 50% (the IC50) was calculated. Values (in μM) represent the mean±sd for replicate trials.

[2] = tested on: MCF-7 human breast adenocarcinoma cells; experiment: Cytotoxicity, SRB binding assay; type: cell-based
Protocol: as §1

[3] = inhibition of cell proliferation, read-out: MCF-10A IC50
[4] = MCF7, inhibition of cell proliferation, 48 h, read-out: MCF-7 IC50

CC(C)NC(=O)C12CC3CC(C1)CC(c1ccc(Cl)cc1)(C3)C2 [Compound 1, 3-(4-Chloro-phenyl)-adamantane-1-carboxylic acid isopropylamide]
Recombinant SK (% inhibition) (recombinant human SK): 38% | IC50 [1, 3]: 151 µM | IC50 [2, 4]: 23 µM

O=C(Nc1ccccc1)C12CC3CC(C1)CC(c1ccc(Cl)cc1)(C3)C2 [Compound 4, 3-(4-Chloro-phenyl)-adamantane-1-carboxylic acid phenylamide]
Recombinant SK (% inhibition) (recombinant human SK): 44% | IC50 [1, 3]: 137 µM | IC50 [2, 4]: 72 µM

O=C(Nc1ccc(O)cc1)C12CC3CC(CC(C3)C1)C2 [Compound 5, Adamantane-1-carboxylic acid (4-hydroxy-phenyl)-amide]
Recombinant SK (% inhibition) (recombinant human SK): 100% | IC50 [1, 3]: 30 µM

O=C(Nc1ccc(O)cc1)C12CC3CC(C1)CC(c1ccc(Cl)cc1)(C3)C2 [Compound 6, 3-(4-Chloro-phenyl)-adamantane-1-carboxylic acid (4-hydroxy-phenyl)-amide]
Recombinant SK (% inhibition) (recombinant human SK): 72% | IC50 [1, 3]: 15 µM | IC50 [2, 4]: 5 µM

O=C(Nc1ccc(O)cc1O)C12CC3CC(C1)CC(c1ccc(Cl)cc1)(C3)C2 [Compound 8, 3-(4-Chloro-phenyl)-adamantane-1-carboxylic acid (2,4-dihydroxy-phenyl)-amide]
Recombinant SK (% inhibition) (recombinant human SK): 49% | IC50 [1, 3]: 94 µM | IC50 [2, 4]: 47 µM

O=C(Nc1cccc(CO)c1)C12CC3CC(C1)CC(c1ccc(Cl)cc1)(C3)C2 [Compound 9, 3-(4-Chloro-phenyl)-adamantane-1-carboxylic acid (3-hydroxymethyl-phenyl)-amide]
Recombinant SK (% inhibition) (recombinant human SK): 84% | IC50 [1, 3]: 17 µM | IC50 [2, 4]: 9 µM

N#CCc1ccc(NC(=O)C23CC4CC(CC(C4)C2)C3)cc1 [Compound 10, Adamantane-1-carboxylic acid (4-cyanomethyl-phenyl)-amide]
Recombinant SK (% inhibition) (recombinant human SK): 3% | IC50 [1, 3]: 170 µM

N#CCc1ccc(NC(=O)C23CC4CC(C2)CC(c2ccc(Cl)cc2)(C4)C3)cc1 [Compound 11, 3-(4-Chloro-phenyl)-adamantane-1-carboxylic acid (4-cyanomethyl-phenyl)-amide]
Recombinant SK (% inhibition) (recombinant human SK): 17% | IC50 [1, 3]: 87 µM | IC50 [2, 4]: 87 µM

CN1CCCC1CCNC(=O)C12CC3CC(CC(C3)C1)C2 (stereo not drawn) [Compound 56, Adamantane-1-carboxylic acid [2-(1-methyl-pyrrolidin-2-yl)-ethyl]-amide]
Recombinant SK (% inhibition) (recombinant human SK): 33% | IC50 [2, 4]: 10 µM

O=C(NCc1ccncc1)C12CC3CC(CC(C3)C1)C2 [Compound 60, Adamantane-1-carboxylic acid (pyridin-4-ylmethyl)-amide]
Recombinant SK (% inhibition) (recombinant human SK): 0% | IC50 [2, 4]: 7 µM

O=C(Nc1ncnc2[nH]cnc12)C12CC3CC(C1)CC(c1ccc(Cl)cc1)(C3)C2 [Compound 73, 3-(4-Chloro-phenyl)-adamantane-1-carboxylic acid (9H-purin-6-yl)-amide]
Recombinant SK (% inhibition) (recombinant human SK): 53% | IC50 [2, 4]: 80 µM

Fc1cc(C(F)(F)F)ccc1CNCC12CC3CC(C1)CC(c1ccc(Cl)cc1)(C3)C2 [Compound 78, [3-(4-Chloro-phenyl)-adamantan-1-ylmethyl]-(2-fluoro-4-trifluoromethyl-benzyl)-amine]
Recombinant SK (% inhibition) (recombinant human SK): 43% | IC50 [2, 4]: 30 µM

CN1CCN(NCC23CC4CC(C2)CC(c2ccc(Cl)cc2)(C4)C3)CC1 [Compound 83, [3-(4-Chloro-phenyl)-adamantan-1-ylmethyl]-(4-methyl-piperazin-1-yl)-amine]
Recombinant SK (% inhibition) (recombinant human SK): 60% | IC50 [2, 4]: 5 µM

CN1CCCC1CCNCC12CC3CC(C1)CC(c1ccc(Cl)cc1)(C3)C2 (stereo not drawn) [Compound 86, [3-(4-Chloro-phenyl)-adamantan-1-ylmethyl]-[2-(1-methyl-pyrrolidin-2-yl)-ethyl]-amine]
Recombinant SK (% inhibition) (recombinant human SK): 6% | IC50 [2, 4]: 5 µM

Clc1ccc(C23CC4CC(CC(CNCc5ccncc5)(C4)C2)C3)cc1 [Compound 88, [3-(4-Chloro-phenyl)-adamantan-1-ylmethyl]-pyridin-4-ylmethyl-amine]
Recombinant SK (% inhibition) (recombinant human SK): 1% | IC50 [2, 4]: 11 µM

CC(N)C12CC3CC(CC(c4ccc(Cl)cc4)(C3)C1)C2 (stereo not drawn) [Compound 91, 1-[3-(4-Chloro-phenyl)-adamantan-1-yl]-ethylamine]
IC50 [1, 3]: 4 µM | IC50 [2, 4]: 5 µM

CC(C)NC(C)C12CC3CC(CC(c4ccc(Cl)cc4)(C3)C1)C2 (stereo not drawn) [Compound 92, {1-[3-(4-Chloro-phenyl)-adamantan-1-yl]-ethyl}-isopropyl-amine]
IC50 [1, 3]: 6 µM | IC50 [2, 4]: 2 µM

CC(Nc1ccccc1)C12CC3CC(CC(c4ccccc4)(C3)C1)C2 (stereo not drawn) [Compound 93, Phenyl-[1-(3-phenyl-adamantan-1-yl)-ethyl]-amine]
Recombinant SK (% inhibition) (recombinant human SK): 70% | IC50 [2, 4]: 15 µM

CC(Nc1ccccc1)C12CC3CC(CC(c4ccc(Cl)cc4)(C3)C1)C2 (stereo not drawn) [Compound 95, {1-[3-(4-Chloro-phenyl)-adamantan-1-yl]-ethyl}-phenyl-amine]
IC50 [1, 3]: 68 µM | IC50 [2, 4]: 22 µM

CC(NCc1ccccc1)C12CC3CC(CC(C3)C1)C2 (stereo not drawn) [Compound 96, (1-Adamantan-1-yl-ethyl)-benzyl-amine]
IC50 [1, 3]: 9 µM | IC50 [2, 4]: 9 µM

CC(NC1CCN(C)CC1)C12CC3CC(CC(C3)C1)C2 (stereo not drawn) [Compound 104, (1-Adamantan-1-yl-ethyl)-(1-methyl-piperidin-4-yl)-amine]
Recombinant SK (% inhibition) (recombinant human SK): 0% | IC50 [2, 4]: 34 µM

CC(NC1CCN(C)CC1)C12CC3CC(CC(c4ccccc4)(C3)C1)C2 (stereo not drawn) [Compound 105, (1-Methyl-piperidin-4-yl)-[1-(3-phenyl-adamantan-1-yl)-ethyl]-amine]
IC50 [1, 3]: 14 µM | IC50 [2, 4]: 5 µM

CC(NC1CCN(C)CC1)C12CC3CC(CC(c4ccc(F)cc4)(C3)C1)C2 (stereo not drawn) [Compound 106, {1-[3-(4-Fluoro-phenyl)-adamantan-1-yl]-ethyl}-(1-methyl-piperidin-4-yl)-amine]
IC50 [1, 3]: 6 µM | IC50 [2, 4]: 2 µM

O=C(O)C12CC3CC(C1)CC(c1ccccc1)(C3)C2 [Compound 121, 3-Phenyl-adamantane-1-carboxylic acid]
IC50 [1, 3]: 176 µM | IC50 [2, 4]: 13 µM

O=C(O)C12CC3CC(C1)CC(c1ccc(F)cc1)(C3)C2 [Compound 122, 3-(4-Fluoro-phenyl)-adamantane-1-carboxylic acid]
IC50 [1, 3]: 182 µM | IC50 [2, 4]: 155 µM

O=C(O)C12CC3CC(C1)CC(c1ccc(Cl)cc1)(C3)C2 [Compound 123, 3-(4-Chloro-phenyl)-adamantane-1-carboxylic acid]
IC50 [1, 3]: 95 µM | IC50 [2, 4]: 48 µM

CC(=O)C12CC3CC(CC(C3)C1)C2 [Compound 124, 1-Adamantan-1-yl-ethanone]
IC50 ([1]; read-out: MCF-10A IC50 (μM)): 105 µM | IC50 ([2]; MCF7, 48 h, read-out: MCF-7 IC50 (μM)): 11 µM

CC(=O)C12CC3CC(C1)CC(c1ccccc1)(C3)C2 [Compound 125, 1-(3-Phenyl-adamantan-1-yl)-ethanone]
IC50 [1, 3]: 59 µM | IC50 [2, 4]: 8 µM

CC(=O)C12CC3CC(C1)CC(c1ccc(F)cc1)(C3)C2 [Compound 126, 1-[3-(4-Fluoro-phenyl)-adamantan-1-yl]-ethanone]
IC50 [1, 3]: 6 µM | IC50 [2, 4]: 2 µM

CC(=O)C12CC3CC(C1)CC(c1ccc(Cl)cc1)(C3)C2 [Compound 127, 1-[3-(4-Chloro-phenyl)-adamantan-1-yl]-ethanone]
IC50 [1, 3]: 16 µM | IC50 [2, 4]: 6 µM

COC(=O)C(C(=O)OC)C(=O)C12CC3CC(CC(C3)C1)C2 [Compound 128, 2-(Adamantane-1-carbonyl)-malonic acid dimethyl ester]
IC50 [1, 3]: 63 µM | IC50 [2, 4]: 34 µM

COC(=O)C(C(=O)OC)C(=O)C12CC3CC(C1)CC(c1ccc(Cl)cc1)(C3)C2 [Compound 129, 2-[3-(4-Chloro-phenyl)-adamantane-1-carbonyl]-malonic acid dimethyl ester]
IC50 [1, 3]: 105 µM | IC50 [2, 4]: 16 µM

O=C(/C=C/c1ccc(Cl)cc1)C12CC3CC(C1)CC(c1ccc(Cl)cc1)(C3)C2 [Compound 130, 3-(4-Chloro-phenyl)-1-[3-(4-chloro-phenyl)-adamantan-1-yl]-propenone]
Recombinant SK (% inhibition) (recombinant human SK): 38% | IC50 [2, 4]: 7 µM

N#Cc1ccc(/C=C/C(=O)C23CC4CC(C2)CC(c2ccc(Cl)cc2)(C4)C3)cc1 [Compound 131, 4-{3-[3-(4-Chloro-phenyl)-adamantan-1-yl]-3-oxo-propenyl}-benzonitrile]
Recombinant SK (% inhibition) (recombinant human SK): 41% | IC50 [2, 4]: 27 µM

O=C(/C=C/c1ccc(Cl)nc1)C12CC3CC(C1)CC(c1ccc(Cl)cc1)(C3)C2 [Compound 134, 1-[3-(4-Chloro-phenyl)-adamantan-1-yl]-3-(6-chloro-pyridin-3-yl)-propenone]
Recombinant SK (% inhibition) (recombinant human SK): 52% | IC50 [2, 4]: 16 µM

O=C(/C=C/c1cnc[nH]1)C12CC3CC(C1)CC(c1ccc(Cl)cc1)(C3)C2 [Compound 135, 1-[3-(4-Chloro-phenyl)-adamantan-1-yl]-3-(1H-imidazol-4-yl)-propenone]
Recombinant SK (% inhibition) (recombinant human SK): 64% | IC50 [2, 4]: 3 µM
